Assay results reported in patent publication US20160375016A1, “METHODS FOR REDUCING ANXIETY AND IMPULSIVITY IN SUBJECTS INITIATING TREATMENT WITH SEROTONIN REUPTAKE INHIBITORS” (THE JOHNS HOPKINS UNIVERSITY, priority 2013, published 2016).
Like-named read-outs stand apart in the source and are kept apart here.

Experiments:
[1] = cited from earlier work
[2] = system: C57BL/6 mice; experiment: Elevated plus maze after acute drug administration; type: in vivo, mouse; details: for anxiety in the elevated plus maze compared to Control mice: FIG. 1A legend, result in words; for time spent in the open arm of the elevated plus maze: reboxetine specificity experiment, FIG. 1D, saline 12.3±3.2, n=8 mice per group
Description: Animals and Housing. 7-8 week old male C57BL/6 mice were obtained from the National Cancer Institute (Frederick, Md.) and housed in the Broadway Research Building Johns Hopkins animal facility. Housing and behavioral testing rooms were temperature controlled with a 12 h light/dark cycle, and all behavioral tests were conducted during the light cycle. Animal protocols were approved by the Johns Hopkins University School of Medicine Animal Care and Use Committee.
Drug administration. […]
Elevated Plus Maze. Mice (n=10) were tested on the elevated plus maze in an isolated behavior suite. Mice were placed in the center of the maze and given 5 minutes to freely explore the maze. Time spent in open and closed arms of the maze were tracked using ANY-maze software (Stoelting, Wood Dale, Ill.).
Statistical Analyses. Statistical analyses were completed using GraphPad Prism 5.0 (La Jolla, Calif.). Comparisons between groups in the animal studies were made with one-way ANOVA, and P values <0.05 were considered statistically significant. The Johns Hopkins Institute for Clinical and Translational Research Biostatistics Center provided statistical support.

[3] = assumed from literature for one-compartment model

For `Fc1ccc([C@@H]2CCNC[C@H]2COc2ccc3c(c2)OCO3)cc1` [paroxetine], the Cmax ([1]; after a single 30 mg dose) is given as 17.6 ng/mL, the Tmax ([1]; after a single 30 mg dose) is given as 6.3 h and the t1/2 ([1]; after a single 30 mg dose) is given as 16 h.
For `CN[C@H]1CC[C@@H](c2ccc(Cl)c(Cl)c2)c2ccccc21` [sertraline], the Tmax [1, 3] is given as 6.5 h, the “V (apparent volume of distribution)” value [1, 3] is given as 1400 L and the t1/2 [1, 3] is given as 26 h.
For `COc1ccc(C(CN(C)C)C2(O)CCCCC2)cc1` (centres unmarked) [venlafaxine], the Tmax [1, 3] is given as 8 h, the “V (apparent volume of distribution)” value [1, 3] is given as 426 L and the t1/2 [1, 3] is given as 16.9 h.
In the case of `COc1ccccc1N1CCN(CCN(C(=O)C2CCCCC2)c2ccccn2)CC1` [WAY-100635], the “anxiety in the elevated plus maze compared to Control mice” value [2] is reported as “no effect”, the “reversal of anxiety when co-administered with the SNRI reboxetine” value ([2]; FIG. 1D legend) is reported as “does not reverse anxiety” and the “reversal of anxiety when coadministered with the SSRI fluoxetine” value ([2]; FIG. 1D legend) is reported as “reverses anxiety”. The “time spent in the open arms of the elevated plus maze” value ([2]; acute treatment 40 minutes before testing, fluoxetine 20 mg/kg, WAY-100635 0.3 mg/kg, FIG. 1A, Control 20.03±10.12) was 20.82 ± 15.18 s.
In the case of `CN(C)CCCC1(c2ccc(F)cc2)OCc2cc(C#N)ccc21` (centres unmarked) [citalopram], the Tmax [1, 3] is given as 4 h, the “V (apparent volume of distribution)” value [1, 3] is given as 840 L and the t1/2 [1, 3] is given as 35 h.
In the case of `COCCCC/C(=N\OCCN)c1ccc(C(F)(F)F)cc1` [fluvoxamine], the Cmax ([1]; after a single 50 mg dose) is listed as 30 ng/mL, the Tmax ([1]; after a single 50 mg dose) is listed as 6 h and the t1/2 ([1]; after a single 50 mg dose) is listed as 19 h.
For `CCOc1ccccc1OC(c1ccccc1)C1CNCCO1` (centres unmarked) [reboxetine], the “time spent in the open arm of the elevated plus maze” value [2] was 10.6 ± 10.8 s.
In the case of `CNCCC(Oc1ccc(C(F)(F)F)cc1)c1ccccc1` (centres unmarked) [fluoxetine], the “anxiety in the elevated plus maze compared to Control mice” value [2] is reported as “more anxious”, the “less time in the open arms compared to Control mice” value ([2]; acute fluoxetine 20 mg/kg vs saline) is reported as 72% and the “time spent in the open arm of the elevated plus maze” value [2] is reported as 4.0 ± 4.5 s. The “trough concentration at steady-state” value ([1]; Prozac Full Prescribing Information) was 72 to 258 ng/mL, the “half-life (t1/2)” value ([1]; single 40-mg dose of Prozac) was 48 h and the “peak drug concentration (Cmax)” value ([1]; single 40-mg dose of Prozac) was 35 ng/mL.
